Measurements as given in patent US20230167088A1, “1-PYRAZINYLPYRAZOLYL-3-OXYALKYL ACIDS AND THEIR DERIVATIVES, AND THEIR USE FOR CONTROL OF UNDESIRED PLANT GROWTH” (BAYER AKTIENGESELLSCHAFT, priority 2020, published 2023).

Tests used:
ALOMY [1] = assay: Herbicidal post-emergence action 1a (greenhouse pots, visual rating); assay type: in vivo, Alopecurus myosuroides; conditions: rated visually about 3 weeks after treatment, 100% = plants have died, 0% = like control plants
In short: (§1)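 Visual scoring versus untreated plants (100% = plants dead, 0% = as control) followed roughly 3 weeks in the greenhouse after treatment. Plants grown in sandy loam pots had been sprayed on green parts at the one-leaf stage, 2–3 weeks post-sowing, with aqueous WP/EC preparations containing 0.5% additive, 600 l/ha, at 320 and/or 80 g/ha.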

AVEFA [2] = assay: as above; assay type: in vivo, Avena fatua; conditions: rated visually about 3 weeks after treatment, 100% = plants have died, 0% = like control plants
In short: as §1

ECHCG [3] = assay: as above; assay type: in vivo, Echinochloa crus-galli; conditions: Dosage 320 g/ha; rated visually about 3 weeks after treatment; 100% = plants have died, 0% = like control plants
In short: as §1

LOLRI [4] = assay: as above; assay type: in vivo, Lolium rigidum; conditions: rated visually about 3 weeks after treatment, 100% = plants have died, 0% = like control plants
In short: as §1

SETVI [5] = assay: as above; assay type: in vivo, Setaria viridis; conditions: rated visually about 3 weeks after treatment, 100% = plants have died, 0% = like control plants
In short: as §1

ABUTH = assay: as above; assay type: in vivo, Abutilon theophrasti; conditions: visual rating about 3 weeks after treatment
In short: as §1

AMARE [6] = assay: as above; assay type: in vivo, Amaranthus retroflexus; conditions: visual rating about 3 weeks after treatment
In short: as §1

PHBPU [7] = assay: as above; assay type: in vivo, Pharbitis purpurea; conditions: visual rating about 3 weeks after treatment
In short: as §1

VERPE [8] = assay: as above; assay type: in vivo, Veronica persica; conditions: visual rating about 3 weeks after treatment
In short: as §1

ALOMY [9] = assay: Herbicidal pre-emergence action 2a (greenhouse pots, visual scoring); assay type: in vivo, Alopecurus myosuroides; conditions: dosage 320 g/ha, visual scoring after about 3 weeks
In short: (§2)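 Pre-emergence greenhouse pot test: WP or EC formulations sprayed onto covering soil over sown seeds at 600 l/ha water with 0.5% additive, at rates corresponding to 320 g/ha and/or 80 g/ha. Visual % activity versus untreated controls after about 3 weeks (100% = plants dead).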

AVEFA [10] = assay: as above; assay type: in vivo, Avena fatua; conditions: dosage 320 g/ha, visual scoring after about 3 weeks
In short: as §2

ECHCG [11] = assay: as above; assay type: in vivo, Echinochloa crus-galli; conditions: dosage 320 g/ha, visual scoring after about 3 weeks
From the text: (§3) [table] a) Seeds of monocotyledonous and dicotyledonous weed plants and crop plants are placed in plastic or organic plant pots and covered with soil. The compounds of the invention, formulated in the form of wettable powders (WP) or as emulsion concentrates (EC), are then applied onto the surface of the covering soil as aqueous suspension or emulsion with addition of 0.5% additive at a water application rate of 600 1/ha (converted). After the treatment, the pots are placed in a greenhouse and kept under good growth conditions for the trial plants. After about 3 weeks, the effect of the preparations is scored visually in comparison with untreated controls as percentages. For example, 100% activity=the plants have died, 0% activity=like control plants. Tables B1 to B15 below show the effects of selected compounds of the general formula (I) according to Tables 1 and 2 on various harmful plants and an application rate corresponding to 320 g/ha and/or 80 g/ha, which were obtained by the experimental procedure mentioned above.

LOLRI [12] = assay: as above; assay type: in vivo, Lolium rigidum; conditions: dosage 320 g/ha, visual scoring after about 3 weeks vs untreated controls
In short: as §2

SETVI [13] = assay: as above; assay type: in vivo, Setaria viridis; conditions: dosage 320 g/ha, visual scoring after about 3 weeks vs untreated controls
In short: as §2

AMARE [14] = assay: as above; assay type: in vivo, Amaranthus retroflexus; conditions: dosage 320 g/ha, visual scoring after about 3 weeks vs untreated controls
In short: as §2

MATIN = assay: as above; assay type: in vivo, Matricaria inodora; conditions: dosage 320 g/ha, visual scoring after about 3 weeks vs untreated controls
In short: as §2

PHBPU [15] = assay: as above; assay type: in vivo, Pharbitis purpurea; conditions: dosage 320 g/ha, visual scoring after about 3 weeks vs untreated controls
From the text: as §3

POLCO [16] = assay: as above; assay type: in vivo, Polygonum convolvulus; conditions: dosage 320 g/ha, visual scoring after about 3 weeks vs untreated controls
In short: as §2

VERPE [17] = assay: as above; assay type: in vivo, Veronica persica; conditions: dosage 320 g/ha, visual scoring after about 3 weeks vs untreated controls
In short: as §2

DIGSA [18] = assay: Herbicidal post-emergence action 1a (greenhouse pots, visual rating); assay type: in vivo, Digitaria sanguinalis; conditions: rated visually about 3 weeks after treatment, 100% = plants have died, 0% = like control plants
Protocol: (§4) [table] a) Seeds of monocotyledonous and dicotyledonous weeds and crop plants are placed in sandy loam in plastic or organic plant pots, covered with soil and cultivated in a greenhouse under controlled growth conditions. 2 to 3 weeks after sowing, the test plants are treated at the one-leaf stage. The compounds of the invention, formulated in the form of wettable powders (WP) or as emulsion concentrates (EC), are then sprayed onto the green parts of the plants as aqueous suspension or emulsion with addition of 0.5% additive at a water application rate of 600 1/ha (converted). After the test plants have been kept in the greenhouse under optimum growth conditions for about 3 weeks, the activity of the preparations is rated visually in comparison to untreated controls. For example, 100% activity=the plants have died, 0% activity=like control plants. Tables A1 to A15 below show the effects of selected compounds of the general formula (I) according to Tables 1 and 2 on various harmful plants and an application rate corresponding to 320 g/ha and/or 80 g/ha, which were obtained by the experimental procedure mentioned above.

POLCO [19] = assay: as above; assay type: in vivo, Polygonum convolvulus; conditions: dosage 320 g/ha, visual rating about 3 weeks after treatment
In short: as §1

VIOTR [20] = assay: as above; assay type: in vivo, Viola tricolor; conditions: visual rating about 3 weeks after treatment
In short: as §1

DIGSA [21] = assay: Herbicidal pre-emergence action 2a (greenhouse pots, visual scoring); assay type: in vivo, Digitaria sanguinalis; conditions: dosage 320 g/ha, visual scoring after about 3 weeks
From the text: as §3

VIOTR [22] = assay: as above; assay type: in vivo, Viola tricolor; conditions: dosage 320 g/ha, visual scoring after about 3 weeks vs untreated controls
In short: as §2

harmful plants [23] = assay: Herbicidal post-emergence action 1a, summary across species; assay type: in vivo; conditions: Tables A1 to A15 (320 g/ha and/or 80 g/ha)
Protocol: as §4, with “a)” for “[table] a)”, “plants.” for “plants. Tables A1 to A15 below show the effects of selected compounds of the general formula (I) according to Tables 1 and 2 on various harmful plants and an application rate corresponding to 320 g/ha and/or 80 g/ha, which were obtained by the experimental procedure mentioned above.”
Tables A1 to A15 below show the effects of selected compounds of the general formula (I) according to Tables 1 and 2 on various harmful plants and an application rate corresponding to 320 g/ha and/or 80 g/ha, which were obtained by the experimental procedure mentioned above.
For example, compound nos. I-05, I-07, I-08, I-10, I-12, I-16, I-17, I-22, I-36, I-37, I-39 and I-40 in the post-emergence method have very good action (80% to 100% herbicidal activity) against harmful plants such as Alopecurus myosuroides, Amaranthus retroflexus, Avena fatua, Lolium rigidum, Polygonum convolvulus, Setaria viridis, Veronica persica and Viola tricolor at an application rate of 0.32 kg of active substance per hectare.

harmful plants [24] = assay: Herbicidal pre-emergence action 2a, summary across species; assay type: in vivo; conditions: Tables B1 to B15 (320 g/ha and/or 80 g/ha)
From the text: as §3, with “a)” for “[table] a)”, “plants.” for “plants. Tables B1 to B15 below show the effects of selected compounds of the general formula (I) according to Tables 1 and 2 on various harmful plants and an application rate corresponding to 320 g/ha and/or 80 g/ha, which were obtained by the experimental procedure mentioned above.”
Tables B1 to B15 below show the effects of selected compounds of the general formula (I) according to Tables 1 and 2 on various harmful plants and an application rate corresponding to 320 g/ha and/or 80 g/ha, which were obtained by the experimental procedure mentioned above.
For example, compound nos. I-07, I-08, I-11, I-12, I-13, I-16, I-17, I-20, I-36, I-37, I-39, I-45, I-46, I-48, I-52 and I-53 in the pre-emergence method have very good action (80% to 100% herbicidal activity) against harmful plants such as Alopecurus myosuroides, Amaranthus retroflexus, Digitaria sanguinalis, Lolium rigidum, Polygonum convolvulus, Setaria viridis, Veronica persica and Viola tricolor at an application rate of 0.32 kg of active substance per hectare.

| Compound | Post-emergence action against ALOMY in % (ALOMY [1]; Dosage 320 g/ha) [%] | Post-emergence action against AVEFA in % (AVEFA [2]; Dosage 80 g/ha) [%] | Post-emergence action against AVEFA in % (AVEFA [2]; Dosage 320 g/ha) [%] | Post-emergence action against ECHCG in % (ECHCG [3]) [%] | Post-emergence action against LOLRI in % (LOLRI [4]; Dosage 320 g/ha) [%] | Post-emergence action against SETVI in % (SETVI [5]; Dosage 320 g/ha) [%] | Post-emergence action against ABUTH in % (ABUTH; dosage 80 g/ha) [%] | Post-emergence action against ABUTH in % (ABUTH; dosage 320 g/ha) [%] | Post-emergence action against AMARE in % (AMARE [6]; dosage 80 g/ha) [%] | Post-emergence action against AMARE in % (AMARE [6]; dosage 320 g/ha) [%] | Post-emergence action against VERPE in % (VERPE [8]; dosage 320 g/ha) [%] | Pre-emergence action against ALOMY in % (ALOMY [9]) [%] | Pre-emergence action against AVEFA in % (AVEFA [10]) [%] | Pre-emergence action against ECHCG in % (ECHCG [11]) [%] | Pre-emergence action against LOLRI in % (LOLRI [12]) [%] | Pre-emergence action against SETVI in % (SETVI [13]) [%] | Pre-emergence action against AMARE in % (AMARE [14]) [%] | Pre-emergence action against POLCO in % (POLCO [16]) [%] | Pre-emergence action against VERPE in % (VERPE [17]) [%] | also measured |
| --- | --- | --- | --- | --- | --- | --- | --- | --- | --- | --- | --- | --- | --- | --- | --- | --- | --- | --- | --- | --- |
| O=C(O)COc1nn(-c2cnccn2)c(-c2cncc(F)c2)c1Br [Example I-93] | 100 | 100 | 100 | 90 | 90 | 90 | 80 | 80 | 90 | 90 | 80 | 90 | 100 | 100 | 100 | 100 | 100 | 100 | 100 | Post-emergence action against SETVI in % (SETVI [5]; Dosage 80 g/ha): 90%; Post-emergence action against PHBPU in % (PHBPU [7]; dosage 80 g/ha): 90%; Post-emergence action against PHBPU in % (PHBPU [7]; dosage 320 g/ha): 90%; Post-emergence action against VERPE in % (VERPE [8]; dosage 80 g/ha): 80%; Pre-emergence action against MATIN in % (MATIN): 100%; Pre-emergence action against PHBPU in % (PHBPU [15]): 100% |
| COC(=O)[C@@H](C)Oc1nn(-c2cnccn2)c(-c2ccc(F)nc2)c1Br [Example I-17] | 100 | 90 | 100 | 90 | 90 | 80 | 80 | 80 | 80 | 80 | 90 | 100 | 100 | 100 | 100 | 100 | 100 | 90 | 100 | Post-emergence action against ALOMY in % (ALOMY [1]; Dosage 80 g/ha): 100%; Post-emergence action against DIGSA in % (DIGSA [18]; Dosage 80 g/ha): 80%; Post-emergence action against DIGSA in % (DIGSA [18]; Dosage 320 g/ha): 90%; Post-emergence action against LOLRI in % (LOLRI [4]; Dosage 80 g/ha): 90%; Post-emergence action against POLCO in % (POLCO [19]): 90%; Post-emergence action against VIOTR in % (VIOTR [20]; dosage 80 g/ha): 90%; Post-emergence action against VIOTR in % (VIOTR [20]; dosage 320 g/ha): 90%; Pre-emergence action against DIGSA in % (DIGSA [21]): 100%; Pre-emergence action against VIOTR in % (VIOTR [22]): 100%; herbicidal efficacy against harmful plants in the case of post-emergence treatment (in words) (harmful plants [23]): good herbicidal efficacy; herbicidal efficacy against harmful plants in the case of pre-emergence treatment (in words) (harmful plants [24]): good herbicidal efficacy |
